Experimental data reported in ChEMBL document CHEMBL1135912, “GBR compounds and mepyramines as cocaine abuse therapeutics: chemometric studies on selectivity using grid independent descriptors (GRIND)” (J Med Chem, 2002).
Several values for one entry are separate records, joined by “and”; a condition that tells them apart may be missing. Identical values can stand only once.

Columns and labels:
Format in all cases: cell-based
[1] = molecular target: Sodium-dependent dopamine transporter (Homo sapiens) (UniProt Q01959); assay: Inhibition of radioligand [125I]RTI-55 binding to human Dopamine transporter in clonal cells
Sodium-dependent dopamine transporter (Homo sapiens), sequence (Q01959 whole entry): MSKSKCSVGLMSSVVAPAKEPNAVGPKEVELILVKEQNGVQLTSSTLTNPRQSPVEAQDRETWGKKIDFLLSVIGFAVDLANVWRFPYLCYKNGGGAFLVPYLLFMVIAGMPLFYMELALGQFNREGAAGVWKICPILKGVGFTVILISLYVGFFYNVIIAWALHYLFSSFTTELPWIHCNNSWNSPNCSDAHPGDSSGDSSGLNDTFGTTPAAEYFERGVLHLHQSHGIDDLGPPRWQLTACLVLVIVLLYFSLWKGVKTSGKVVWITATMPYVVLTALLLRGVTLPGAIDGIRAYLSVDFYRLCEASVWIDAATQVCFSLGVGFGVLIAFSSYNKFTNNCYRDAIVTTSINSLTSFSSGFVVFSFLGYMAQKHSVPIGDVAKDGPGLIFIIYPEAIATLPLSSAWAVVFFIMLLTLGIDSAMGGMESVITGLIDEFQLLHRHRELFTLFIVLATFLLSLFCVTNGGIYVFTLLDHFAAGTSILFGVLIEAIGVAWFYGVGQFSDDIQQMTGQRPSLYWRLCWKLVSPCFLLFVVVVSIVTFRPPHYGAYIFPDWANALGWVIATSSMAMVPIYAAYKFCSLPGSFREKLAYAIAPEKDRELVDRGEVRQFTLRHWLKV

[2] = molecular target: Sodium-dependent serotonin transporter (Homo sapiens) (UniProt P31645); assay: Inhibition of [125I]RTI-55 binding to human SERT in clonal cells
Sodium-dependent serotonin transporter (Homo sapiens), sequence (P31645 whole entry, looked up): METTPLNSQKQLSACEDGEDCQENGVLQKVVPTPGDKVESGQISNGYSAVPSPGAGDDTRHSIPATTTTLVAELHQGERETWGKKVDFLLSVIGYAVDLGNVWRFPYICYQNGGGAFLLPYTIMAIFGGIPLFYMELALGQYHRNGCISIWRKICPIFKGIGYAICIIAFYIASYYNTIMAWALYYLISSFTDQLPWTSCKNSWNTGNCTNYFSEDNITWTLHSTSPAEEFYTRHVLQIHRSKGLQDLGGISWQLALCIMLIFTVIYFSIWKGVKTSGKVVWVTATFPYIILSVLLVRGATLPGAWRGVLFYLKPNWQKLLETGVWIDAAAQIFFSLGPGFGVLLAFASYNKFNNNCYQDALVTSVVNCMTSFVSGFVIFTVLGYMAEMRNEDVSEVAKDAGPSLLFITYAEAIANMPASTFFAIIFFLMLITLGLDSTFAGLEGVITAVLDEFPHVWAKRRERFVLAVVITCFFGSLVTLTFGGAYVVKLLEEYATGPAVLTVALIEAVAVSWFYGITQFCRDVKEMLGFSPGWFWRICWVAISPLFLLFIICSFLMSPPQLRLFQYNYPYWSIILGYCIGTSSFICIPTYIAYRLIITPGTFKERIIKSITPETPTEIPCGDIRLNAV

[3] = molecular target: Sodium-dependent dopamine transporter (Homo sapiens) (UniProt Q01959); assay: Inhibition of [3H]dopamine uptake in HEK293 cells expressing recombinant Dopamine transporter

Structure (SMILES)	pKD [1]	pKD [2]	Log 1/C [3]
Fc1ccc(C(OCCN2CCN(C/C=C/c3ccc(Cl)cc3)CC2)c2ccc(F)cc2)cc1	7.65	6.09	6.66
Fc1ccc(C(OCCN2CCN(C/C=C/c3ccccc3)CC2)c2ccc(Cl)cc2)cc1 (stereo not drawn)	8.41	6.72	6.7
C(=C\c1ccccc1)/CN1CCN(CCN(Cc2ccccc2)c2ccccc2)CC1	6.35	6.22	6.74
c1ccc(CCCN2CCN(CCCN(Cc3ccccc3)c3ccccc3)CC2)cc1			6.07 and 5.83
COc1cccc(C(OCCN2CCN(C/C=C/c3ccccc3)CC2)c2cccc(Br)c2)c1 (stereo not drawn)	6.88	6.13	6.05
c1ccc(CCCN2CCN(CCN(Cc3ccccc3)c3ccccc3)CC2)cc1	6.66	5.92	5.96
Fc1ccc(CN(CCCN2CCN(CCCc3ccccc3)CC2)c2ccc(F)cc2)cc1	7.86	6.48	6.82
COc1ccc(N(CCN2CCN(CCCc3ccccc3)CC2)Cc2ccccc2)cc1	6.04	6.59	6.67
COc1ccc(CN(CCN2CCN(CCCc3ccccc3)CC2)c2ccccn2)cc1	6.66	6.79	6.57
COc1ccc(CN(CCN2CCN(C/C=C/c3ccccc3)CC2)c2ccccn2)cc1	5.66	6.64	
O=C(/C=C/c1c(Cl)cccc1Cl)N1CCN(CCOC(c2ccc(F)cc2)c2ccc(F)cc2)CC1	5.82	6.68	
Clc1ccc(C(OCCN2CCN(C/C=C/c3ccccc3)CC2)c2ccc(Cl)cc2)cc1	7.42	6.48	6.62
Fc1ccc(CN(CCN2CCN(CCCc3ccccc3)CC2)c2ccc(F)cc2)cc1	7.28	6.57	
O=C(/C=C/c1ccccc1Cl)N1CCN(CCOC(c2ccc(F)cc2)c2ccc(F)cc2)CC1	6.14	6.77	5.24
COc1ccc(OC)c(/C=C/CN2CCN(CCOC(c3ccc(F)cc3)c3ccc(F)cc3)CC2)c1	8.42	6.74	6.43
Fc1ccc(C(OCCN2CCN(Cc3ccccc3)CC2)c2ccc(F)cc2)cc1	7.01	6.74	6.12
c1ccc(CCCN2CCN(CCCCCN(Cc3ccccc3)c3ccccc3)CC2)cc1	7.5	6.63	5.83
Fc1ccc(C(OCCN2CCN(CCCc3ccccc3)CC2)c2ccccc2)cc1 (stereo not drawn)	7.69	6.21	7.8
CN(CCc1ccccc1)CCN1CCN(CCCc2ccccc2)CC1	6.26	5.58	6.85
Fc1ccc(CN(CCCN2CCN(CCCc3ccccc3)CC2)c2ccccn2)cc1	7.95	6.55	6.91
Fc1ccc(/C=C/CN2CCN(CCOC(c3ccccc3)c3ccc(F)cc3)CC2)cc1 (stereo not drawn)	7.64	6.7	7.22
COc1ccc(/C=C/CN2CCN(CCOC(c3ccc(F)cc3)c3ccc(F)cc3)CC2)cc1	7.19	6.43	6.47
Cc1ccc(C(OCCN2CCN(C/C=C/c3ccccc3)CC2)c2ccccc2)cc1 (stereo not drawn)	6.95	5.95	6.78
O=C(CN1CCN(CCCc2ccccc2)CC1)N(Cc1ccccc1)c1ccccc1	5.97	5.54	6.28
O=C(/C=C/c1ccc(Cl)cc1)N1CCN(CCOC(c2ccc(F)cc2)c2ccc(F)cc2)CC1	6.37	7.14	5.44
O=C(CCCCN1CCN(CCCc2ccccc2)CC1)N(Cc1ccccc1)c1ccccc1	7.24	6.69	6.92
Brc1ccc(CN(CCN2CCN(CCCc3ccccc3)CC2)c2ccc(Br)cc2)cc1	6.01	5.79	

Structure (SMILES)	pKD [1]	pKD [2]	Log 1/C [3]
O=C(CCCN1CCN(CCCc2ccccc2)CC1)N(Cc1ccccc1)c1ccccn1	6.25	5.88	6.61
COc1ccc(CN(CCCN2CCN(CCCc3ccccc3)CC2)c2ccccn2)cc1	7.8	7.23	7.08
Fc1ccc(CCCN2CCN(CCOC(c3ccccc3)c3ccc(F)cc3)CC2)cc1 (stereo not drawn)	7.51	6.33	7.49
Fc1ccc(C(OCCN2CCN(C/C=C/c3ccccc3)CC2)c2ccc(F)cc2)cc1 (stereo in doubt; 24)	7.76	7.79	8.38
Fc1ccc(C(OCCN2CCN(CCCc3ccc(Cl)cc3)CC2)c2ccc(F)cc2)cc1	8.09	6.81	7.3
Cc1ccc(/C=C/CN2CCN(CCOC(c3ccc(F)cc3)c3ccc(F)cc3)CC2)cc1	7.32	6.18	6.43
Fc1ccc(/C=C/CN2CCN(CCOC(c3ccc(F)cc3)c3ccc(F)cc3)CC2)cc1	8.41	6.64	6.96
Fc1ccc(C(OCCN2CCN(C/C=C/c3ccccc3)CC2)c2ccc(Cl)cc2Cl)cc1 (stereo not drawn)	7.18	6.28	5.86
Fc1ccc(CN(CCN2CCN(CCCc3ccccc3)CC2)c2ccccn2)cc1	7.19	6.64	6.24
Fc1ccc(CCCN2CCN(CCOC(c3ccc(F)cc3)c3ccc(F)cc3)CC2)cc1	8.25	6.44	6.42
Fc1ccc(CCCN2CCN(CCOC(c3ccccc3)c3ccccc3)CC2)cc1	7.4	5.74	6.41
Fc1ccc(C(OCCN2CCN(C/C=C/Cc3ccccc3)CC2)c2ccc(F)cc2)cc1	8.29	7.14	6.86
COc1ccc(OC)c(/C=C/C(=O)N2CCN(CCOC(c3ccc(F)cc3)c3ccc(F)cc3)CC2)c1	6.25	6.69	
c1ccc(CCCN2CCN(CCCCN(Cc3ccccc3)c3ccccc3)CC2)cc1	7.86	6.88	5.76
Fc1ccc(C(OCCN2CCN(C/C=C/c3ccccc3)CC2)c2ccccc2)cc1 (stereo not drawn)	7.48	6.67	7.1
COc1ccc(C(OCCN2CCN(C/C=C/c3ccccc3)CC2)c2ccccc2)cc1 (stereo not drawn)		6.16	
COc1ccc(N(CCN2CCN(C/C=C/c3ccccc3)CC2)Cc2ccccc2)cc1		6.55	
Cc1ccc(CN(CCN2CCN(CCCc3ccccc3)CC2)c2ccccc2)cc1	6.37	6.09	5.49
C(=C\c1ccccc1)/CN1CCN(CCN(Cc2ccccc2)c2ccccn2)CC1	6	6.17	6.1
Cc1ccc(/C=C/C(=O)N2CCN(CCOC(c3ccc(F)cc3)c3ccc(F)cc3)CC2)cc1	6.1	6.71	5.21
Fc1ccc(C(OCCN2CCN(C/C=C/c3ccccc3)CC2)c2ccc(F)cc2)cc1 (stereo in doubt; 26)	6.39	6.02	6.97
COc1ccc(/C=C/C(=O)N2CCN(CCOC(c3ccc(F)cc3)c3ccc(F)cc3)CC2)cc1	6.31	6.85	5.87
O=C(CCCN1CCN(CCCc2ccccc2)CC1)N(Cc1ccccc1)c1ccccc1	7.56	6.28	7.12
Fc1ccc(/C=C/CN2CCN(CCOC(c3ccccc3)c3ccccc3)CC2)cc1	7.8	5.88	7.26
Fc1ccc(C(OCCN2CCN(C/C=C/c3ccccc3)CC2)c2ccc(F)cc2)cc1 (stereo in doubt; 15)	8.11	6.44	7.08
c1ccc(CCCN2CCN(CCN(Cc3ccccc3)c3ccccn3)CC2)cc1	7.04	6.28	6.91
